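In this assay, cells in 96-well plates receive the compound at five concentrations for 48 hours. Endpoints are linearly interpolated between the surrounding concentrations. The concentration for full growth arrest is given as TGI.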
Assays:
Test in all cases: growth of human tumour cells (NCI), 48 h
MDA-N = system: MDA-N
SK-MEL-2 melanoma = system: SK-MEL-2 melanoma
NCI-H522 lung = system: NCI-H522 lung
HCT-116 colon = system: HCT-116 colon
NCI-H23 lung = system: NCI-H23 lung
M14 melanoma = system: M14 melanoma
UACC-62 melanoma = system: UACC-62 melanoma
A498 renal = system: A498 renal
KM12 colon = system: KM12 colon
TK-10 renal = system: TK-10 renal
UACC-257 melanoma = system: UACC-257 melanoma

Compound | TGI (MDA-N) | TGI (SK-MEL-2 melanoma) | TGI (NCI-H522 lung) | TGI (HCT-116 colon) | TGI (NCI-H23 lung) | TGI (M14 melanoma) | TGI (UACC-62 melanoma) | TGI (A498 renal) | TGI (KM12 colon) | TGI (TK-10 renal) | TGI (UACC-257 melanoma)
CSc1ccccc1P(CCP(c1ccccc1SC)c1ccccc1SC)c1ccccc1SC | > 100 µM | > 97.2 µM | > 100 µM | > 100 µM | > 38.1 µM | > 100 µM | > 100 µM | > 81.7 µM | > 100 µM | > 100 µM | > 89.5 µM
COC(=O)C1=C(C)NC2(C)OC(C)(O)C(C(C)=O)C12C(C)=O (stereo not drawn) | > 100 µM | 54.6 µM | > 100 µM | > 100 µM | > 100 µM | > 100 µM | > 100 µM | > 100 µM | > 100 µM | > 100 µM | > 100 µM
Cc1ccc(S(=O)(=O)N2CCN(CCO)CCN(S(=O)(=O)c3ccc(C)cc3)CCN(CCO)CC2)cc1 | 93.6 µM | 35.2 µM | 33.2 µM | 29.1 µM | 45.9 µM | 31.5 µM | 37.7 µM | 62.7 µM | 38.6 µM | > 100 µM | 25.1 µM
CC(C)CC(NC(=O)C(COc1ccc([N+](=O)[O-])cc1)Cc1ccccc1)C(=O)Nc1ccccc1 (stereo not drawn) | > 100 µM | 74.1 µM | 55.2 µM | > 100 µM | 28.7 µM | 60.8 µM | 30.9 µM | 72.2 µM | 21.5 µM | 50.3 µM | > 100 µM
c1ccc2c(c1)c1c3n2-c2cc(on2)C3CCC1 (stereo not drawn) | > 100 µM | > 100 µM | > 100 µM | > 100 µM | > 100 µM | > 100 µM | > 100 µM | > 100 µM | > 100 µM | > 100 µM | > 100 µM
C[C@@H]1OCC(O)C([C@H]2OC(c3ccccc3)=N[C@H]2CO)O1 (stereo partly drawn) | > 100 µM | > 100 µM | > 100 µM | > 100 µM | > 100 µM | > 100 µM | > 100 µM | > 100 µM | > 100 µM | > 100 µM | > 100 µM
C=C1C(=O)O[C@H]2C3C(=C(C)CC[C@@H]12)C(=O)[C@@H]1OC31C (stereo partly drawn) | 3.95 µM | 18.3 µM | 2.91 µM | 2.7 µM | 6.4 µM | 3.19 µM | 5.69 µM | 23.7 µM | 20.2 µM | 4.4 µM | 5.98 µM
O=c1/c(=C/c2ccc(-c3ccc(Cl)cc3Cl)o2)sc2n1[C@@H](c1ccc3c(c1)OCO3)C=C(c1cc(F)c(Cl)cc1Cl)N=2 | > 100 µM | 71.1 µM | > 100 µM | > 100 µM | > 100 µM | > 100 µM | > 100 µM | 6 µM | > 100 µM | 59 µM | 71.1 µM
O=C(O)CCCc1ccc2c(c1)CC1(C2)Cc2ccc(CCCC(=O)O)cc2C1 | > 100 µM | > 100 µM | > 100 µM | > 100 µM | > 100 µM | > 100 µM | > 100 µM | > 100 µM | > 100 µM | > 100 µM | > 100 µM
COC(=O)C[C@H](CCSC)NC(=O)C[C@H](CCSC)NC(=O)C[C@H](CCSC)NC(=O)OC(C)(C)C | > 100 µM | 64.5 µM | > 100 µM | > 100 µM | > 100 µM | > 100 µM | 84.3 µM | 46.4 µM | > 100 µM | 42.2 µM | > 100 µM
C/C(=C\c1ccccc1)C(=O)NCc1ccc(C(=O)NCCc2c[nH]c3ccccc23)cc1 | > 100 µM | > 100 µM | > 100 µM | > 100 µM | > 100 µM | > 100 µM | 53.7 µM | > 100 µM | > 100 µM | > 100 µM | 78.2 µM
CC1(O)C(=O)OC2CC([C@]3(O)CCC4[C@@H]5C[C@H]6O[C@]67[C@@H](O)C=CC(=O)[C@]7(C)C5CC[C@@]43C)C1(C)C2 (stereo partly drawn) | 17.9 µM | 28.6 µM | 4.85 µM | 23.1 µM | 25.1 µM | 26.4 µM | 30.2 µM | > 100 µM | > 64.1 µM | 23.2 µM | 26.6 µM
COc1ccc(NC(=S)NNC(=O)c2cc(-c3ccccc3)nc3ccccc23)cc1 | 15.5 µM | 38.9 µM | 50.7 µM | 27 µM | 30.6 µM | 31.9 µM | 30.6 µM | 35.1 µM | > 100 µM | 46.8 µM | 46.9 µM
Cc1nn(-c2ccccn2)c2c1C(SC#N)=C(C=O)CC2 | 38.6 µM | 30.5 µM | 46 µM | 37.1 µM | 32.2 µM | 31.7 µM | 18.3 µM | 5.57 µM | 32.7 µM | 6.03 µM | 17.8 µM
Cc1nnc(CC#N)n1NC(=O)CC#N | > 100 µM | > 100 µM | > 100 µM | > 100 µM | > 100 µM | > 100 µM | > 100 µM | > 100 µM | > 100 µM | > 100 µM | > 100 µM
O=S(=O)(O)c1ccc(Nc2ccnc3cc(Cl)ccc23)cc1 | > 100 µM | > 100 µM | > 100 µM | > 100 µM | > 100 µM | > 100 µM | > 100 µM | > 100 µM | > 100 µM | > 100 µM | > 100 µM
CCOC(=O)C1=C(C)N(c2ccc(C)cc2)C2(O)C=CC(=O)C3=C(O)c4ccccc4C(=O)C312 (stereo not drawn) | 69.5 µM | 94.1 µM | 34.7 µM | > 100 µM | > 100 µM | > 100 µM | > 100 µM | 67.9 µM | > 100 µM | > 100 µM | 57.9 µM
O=c1oc2ccccc2c(O)c1Cc1cccc(Cc2c(O)c3ccccc3oc2=O)c1 | > 100 µM | > 100 µM | > 100 µM | > 100 µM | > 100 µM | > 100 µM | > 100 µM | > 100 µM | > 100 µM | > 100 µM | > 100 µM
Cc1nnc2sc(-c3ccc([N+](=O)[O-])o3)nn12 | 19.4 µM | 24.2 µM | 14.3 µM | 20.7 µM | 34.4 µM | 21.9 µM | 22.1 µM | > 100 µM | 33.5 µM | 28.6 µM | 26.8 µM
Oc1ccc2ccccc2c1OCc1nnc(CCCCCCCCc2nnc(COc3c(O)ccc4ccccc34)o2)o1 | > 100 µM | > 100 µM | > 100 µM | 54.5 µM | > 100 µM | > 100 µM | > 100 µM | > 100 µM | > 100 µM | > 100 µM | > 100 µM
CC(C)c1nccn1Cc1ccc(Cl)cc1Cl | > 100 µM | > 100 µM | 97.9 µM | 63.4 µM | > 100 µM | > 100 µM | > 100 µM | > 100 µM | > 100 µM | > 100 µM | 95.9 µM
COc1cc2c(cc1O)CC[C@@H]1C2CC[C@@]2(C)C1CC[C@@H]2O (stereo partly drawn) | 0.574 µM | > 100 µM | 6.87 µM | > 81 µM | 51.7 µM | > 100 µM | > 100 µM | 50.4 µM | 61.8 µM | > 94.1 µM | > 100 µM
COC(=O)/C=C\C(C#N)(C#N)N=Cc1ccsc1 | 8.66 µM | 30.7 µM | 1.99 µM | 3.57 µM | 22.1 µM | 8.23 µM | 9.69 µM | 35.3 µM | 28.9 µM | 5.96 µM | 9.35 µM

From PubChem BioAssay (NCI)
